Data published in patent US20240316038A1, “APOL1 INHIBITORS AND METHODS OF USE” (Maze Therapeutics, Inc., priority 2021, published 2024).

How the values were obtained:
APOL1 G2 [1] = target: T1, APOL1 G2 (Homo sapiens, UniProt O14791, DEL388-389); test: APOL1 calcium transport inhibition assay (GCaMP6f calcium influx, FLIPR) in HEK T-REx/GCaMP6f/APOL1 G2 K6.3 cells; assay type: cell-based; conditions: inhibition of APOL1-mediated calcium influx; geometric mean of at least 2 assay runs, † = single assay run (technical duplicate)
T1 construct: expressed in transfected cells; host or cells: HEK293 T-REx clonal lines: HEK T-REx/GCaMP6f/APOL1 G2 K6.3 in A1, HEK293/T-REx APOL1 G2/clone #2 in A2
T1 sequence (O14791 with tags, fused parts or gaps DEL388-389): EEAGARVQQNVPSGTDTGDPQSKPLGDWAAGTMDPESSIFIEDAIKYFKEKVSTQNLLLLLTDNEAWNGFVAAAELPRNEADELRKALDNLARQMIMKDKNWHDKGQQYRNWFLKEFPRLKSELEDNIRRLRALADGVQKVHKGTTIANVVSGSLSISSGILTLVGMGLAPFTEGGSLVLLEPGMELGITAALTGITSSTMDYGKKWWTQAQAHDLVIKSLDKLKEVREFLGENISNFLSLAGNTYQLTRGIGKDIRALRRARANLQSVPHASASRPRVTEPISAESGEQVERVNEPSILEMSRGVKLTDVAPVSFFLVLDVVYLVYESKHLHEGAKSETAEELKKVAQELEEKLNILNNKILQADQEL
Experimental: A HEK293 clonal cell line was generated to stably express GCaMP6f, a genetically encoded calcium indicator, and inducibly express APOL1 G2 (HEK T-REx/GCaMP6f/APOL1 G2 K6.3). Cells were maintained in the following standard complete medium: DMEM with 4.5 g/L glucose and sodium pyruvate (BioWhittaker, Lonza, BE12-614F), supplemented with 10% FBS Performance Plus (Gibco, 16000044), 1% penicillin-streptomycin (BioWhittaker, DE17-602E), 2 mM ultraglutamine-1 (BioWhittaker cat. BE 17-605/U1), 50 μg/mL Zeocin (InvivoGen, ant-zn), 2.5 μg/mL Blasticidin (InvivoGen, ant-bl-5), and 25 μg/mL Hygromycin (InvivoGen, ant-hg). Standard propagation conditions consisted of plating 9×10^6, 4×10^6, 2×10^6 cells in a T225 flasks to be processed after 2, 3, or 4 days, respectively.
A source plate was generated containing 20 serially diluted compounds in DMSO (duplicate 8-point dose response). Next, 0.8 μL of compounds were transferred from the source plate to a destination plate prefilled with 79.2 μL of Ca^2+ free Tyrode's buffer (130 mM NaCl, 5 mM KCl, 1 mM MgCl2, 5 mM NaHCO3, 20 mM HEPES at pH 7.4). The destination plate was placed on a plate shaker (5 seconds at 2000 rpm) to mix. […] All transfer and mixing steps were conducted with an CyBi®-Well dispenser.
Cells were split by gently washing with DPBS (Euroclone, ECB4004L), followed by a 5-minute incubation (humidified, 37° C. with 5% CO2) with trypsin-EDTA solution (Euroclone, ECB3052D). Detached cells were diluted with standard complete medium without selective agents, counted, and plated in a 384 MTP microplate (GR4332CPL, Twin Helix) (10,000 cells/well in 25 μl/well) using a MATRIX WellMate dispenser. Plates were placed into a humidified incubator (37° C. with 5% CO2) overnight. The following day, 20 μL of doxycycline (Sigma, D9891) at 20 ng/mL in standard complete medium was added to cells with a CyBi @Drop dispenser to induce APOL1 G2 expression. After a 6-hour incubation (humidified, 37° C. with 5% CO2), cells were washed 3 times with Ca^2+ free Tyrode's Buffer (130 mM NaCl, 5 mM KCl, 1 mM MgCl2, 5 mM NaHCO3, 20 mM HEPES at pH 7.4) using a BIOTEK Microplate washer, such that 10 μL of buffer remained in each well after the final wash. Assay plates were then stored at room temperature for 10 minutes. Next, 10 μL of diluted compounds were transferred to the assay plate from the 2× compound plate using a CyBi®-Well dispenser. Compound incubation was then carried out at room temperature for 10 minutes. The assay plate was transferred to the […] and 20 μL of 10 mM Ca^2+ (final concentration=5 mM) Tyrode's buffer was injected.
Table B1 below summarizes the data from this experiment. Unless otherwise specified, AC50 and values are reported as the geometric mean of at least 2 assay runs on separate days. Each run represents the average of a technical replicate, where each compound was assayed twice in the same plate. A superscript † symbol indicates a value from the average of a technical replicate from a single assay run, where each compound was assayed twice in the same plate.
The AC50 values in Table B1 below reflect the compound's ability to prevent calcium influx by inhibiting APOL1. […] Compounds in Table B1 are referred to by the corresponding Compound Number in Table 1, which is also referred to in the synthetic examples. When one or more of the numbered compounds are identified by stereochemistry (for example, (R)- or (S)—), the specific stereoisomer for which data is provided in Table B1 may be identified by the elution order of such compound as described in the synthetic examples. To illustrate, Compound 2 is the first-eluting enantiomer of step 4 of Example 1 and Compound 3 is the second-eluting enantiomer of step 4 of Example 1. Further, by way of illustration, Compound 27 is the first-eluting enantiomeric mixture in step 4 of Example 7 and Compound 28 is the second-eluting enantiomeric mixture in step 4 of Example 7. […]

APOL1 G2 [2] = target: T1, APOL1 G2; test: Rescue of HEK293 cell death caused by overexpression of APOL1 (CellTiter-Glo luminescence), HEK293/T-REx APOL1 G2/clone #2; assay type: cell-based; conditions: reversal of cell death caused by overexpression of APOL1; geometric mean of at least 2 assay runs, † = single assay run (technical duplicate)
Experimental: A HEK293 clonal cell line overexpressing APOL1 G2 (HEK293/T-REx APOL1 G2/clone #2) was maintained in 1×DMEM-GlutaMax (Gibco, 10569-010) media with 10% tetracycline-free FBS (Takara Bio USA, 631101), 5 μg/mL Blasticidin (Gibco, A1113903), and 100 μg/mL Zeocin (Invitrogen, R25001) in T75 flasks. In preparation for the assay, this media was aspirated and 2 mL of prewarmed TrypLE Express (Gibco, 12605-010) was added to a flask to detach cells. The flask was then incubated (humidified, 37° C. with 5% CO2) for 3-5 minutes. Afterwards, 8 mL of prewarmed cell assay media (lx DMEM-GlutaMax media with 10% tetracycline-free FBS) was added to the trypsinized cells. The suspension was gently mixed, and cells were counted using a Countess Cell Counting Chamber (Invitrogen). The suspension was diluted using cell assay media to generate a working stock solution (166,667 cells/mL). Using a MultiDrop Combi (Thermo Electron Corp), 30 μL (final cell density=5,000 cells/well) of the working stock solution was dispensed into each well of white 384-well assay ready plates (Nunc™, 164610) containing 6 ng/mL doxycycline, to induce APOL1 expression, and compound. All compounds were plated in a duplicate 8-point dilution series that consisted of 3-fold stepwise dilutions (0.5% DMSO final). Assay plates were incubated (humidified, 37° C. with 5% CO2) for 17 hours. After the incubation, the plates were equilibrated at room temperature for 1 hour. Next, 15 μl of CellTiter-Glo® reagent (Promega, G7570) was added to each well using a MultiDrop Combi. Plates were placed on an orbital shaker (500 rpm) for 5 minutes to induce cell lysis and then incubated at room temperature for 10 minutes. Luminescence was measured on an Envision plate reader. Collaborative Drug Discovery software was utilized for graphing data. Plots were generated using a four parameter logistic curve fit.
Table B2 below provides the results from this experiment. Unless otherwise specified, EC50 values are reported as the geometric mean of at least 2 assay runs on separate days. Each run represents the average of a technical replicate, where each compound was assayed twice in the same plate. A superscript t symbol indicates a value from the average of a technical replicate from a single assay run, where each compound was assayed twice in the same plate. Compounds in Table B2 are referred to by the corresponding Compound Number in Table 1, which is also referred to in the synthetic examples. When one or more of the numbered compounds are identified by stereochemistry (for example, (R)- or (S)—), the specific stereoisomer for which data is provided in Table B2 may be identified by the elution order of such compound as described in the synthetic examples. To illustrate, Compound 2 is the first-eluting enantiomer of step 4 of Example 1 and Compound 3 is the second-eluting enantiomer of step 4 of Example 1. Further, by way of illustration, Compound 27 is the first-eluting enantiomeric mixture in step 4 of Example 7 and Compound 28 is the second-eluting enantiomeric mixture in step 4 of Example 7. Then, Compound 27 is separated into Compound 29 (the first-eluting enantiomer) and Compound 30 (the second-eluting enantiomer) in Example 8, and Compound 28 is separated into Compound 31 (the first-eluting enantiomer) and Compound 32 (the second-eluting enantiomer) in Example 8. Absolute stereochemistry of such compounds may be identified by methods known in the art.
Rescue EC50 values reported in Table B2 below represent the half-maximal effective concentration for reversal of cell death caused by overexpression of APOL1.

Row | AC50 (APOL1 G2 [1]) | SMILES | EC50 (APOL1 G2 [2])
1 | 449 nM | CC(Cc1cccc(Cl)c1)NC[C@@H](O)COc1ccc(N(C)S(C)(=O)=O)cc1 (single isomer, unassigned) [Compound 89, N-(4-((R)-3-(((R) or (S)-1-(3-chlorophenyl)propan-2-yl)amino)-2-hydroxypropoxy)phe-nyl)-N-methylmethanesulfon-amide] | 2020 nM
2 | 376 nM | C[C@H](CNCCc1cccc(Cl)c1)COc1ccc(N(C)S(C)(=O)=O)cc1 [Compound 61, (R)—N-(4-(3-((3-chlorophenethyl)amino)-2-methylpropoxy)phenyl)-N-methylmethanesulfonamide] | 933 nM
3 | 12900 nM | CN(c1ccc(OC[C@@H](O)CN2CCC(c3cccc(Cl)c3)C2(C)C)cc1)S(C)(=O)=O (single isomer, unassigned) [Compound 69, N-(4-((S)-3-((S) or (R)-3-(3-chlorophenyl)-2,2-dimethylpyrrolidin-1-yl)-2-hydroxypropoxy)phe-nyl)-N-methylmethanesulfon-amide] | > 30000 nM
4 | 1370 nM | CS(=O)(=O)c1ccc(OC[C@H]2CCCN(CC(O)c3cccc(Cl)c3)C2)cc1 (stereo partly drawn) [Compound 17, 1-(3-chlorophenyl)-2-((S)-3-((4-(methylsulfonyl)phenoxy)methyl)piperidin-1-yl)ethan-1-ol] | 671 nM
5 | 266 nM | CN(c1ccc(OCC2CCCN(CCc3cccc(Cl)c3)C2)cc1)S(C)(=O)=O (single isomer, unassigned) [Compound 8, (S) or (R)—N-(4-((1-(3-chlorophenethyl)piperidin-3-yl)methoxy)phenyl)-N-methylmethanesulfonamide] | 132 nM
6 | 682 nM | CN(c1ccc(OC[C@H](O)CNC2(Cc3cccc(Cl)c3)CCOC2)cc1)S(C)(=O)=O (stereo partly drawn) [Compound 92, N-(4-((2R)-3-((3-(3-chlorobenzyl)tetra-hydrofuran-3-yl)amino)-2-hydroxypropoxy)phe-nyl)-N-methylmethanesulfon-amide] | > 9790 nM
7 | 472 nM | CN(c1ccc(OC[C@@H](O)CNCCc2cc(Cl)cc(Cl)c2)cc1)S(C)(=O)=O [Compound 91, (S)-N-(4-(3-((3,5-dichlorophenethyl)amino)-2-hydroxypropoxy)phe-nyl)-N-methylmethanesulfon-amide] | 1040 nM
8 | 170 nM | CS(=O)(=O)c1ccc(OC[C@@H]2CN(CCc3cc(Cl)cc(Cl)c3)CCN2)cc1 [Compound 190, (3S)-1-[2-(3,5-dichlorophenyl)ethyl]-3-[(4-methanesulfonylphenoxy)methyl]piperazine] | 291 nM
9 | 1260 nM | CCc1ccccc1CCNC[C@H](O)COc1ccc(N(C)S(C)(=O)=O)cc1 [Compound 100, (S)-N-(4-(3-((2-ethylphenethyl)ami-no)-2-hydroxypropoxy)phe-nyl)-N-methylmethanesulfon-amide] | 2730 nM
10 | 151 nM | C[C@@H]1CN(CCc2cc(Cl)cc(C#N)c2)C[C@H]1COc1ccc(S(C)(=O)=O)cc1 [Compound 194, 3-chloro-5-{2-[(3S,4S)-3-[(4-methanesulfonylphenoxy)methyl]-4-methylpyrrolidin-1-yl]ethyl}benzonnitrile] | 107 nM
11 | 634 nM | CS(=O)(=O)c1ccc(OC[C@@H]2CN(CCc3cc(Cl)cc(C#N)c3)CCN2)cc1 [Compound 189, 3-chloro-5-{2-[(3S)-3-[(4-methanesulfonylphenoxy)methyl]piperazin-1-yl]ethyl}benzonitrile] | 922 nM
12 | 6540 nM | CS(=O)(=O)c1ccc(OC[C@@H](O)CNCCc2cccc(Cl)c2)cc1 [Compound 93, (S)-1-((3-chlorophenethyl)a-mino)-3-(4-(methylsulfonyl)phe-noxy)propan-2-ol] | > 30000 nM

Row | SMILES | AC50 (APOL1 G2 [1]) | EC50 (APOL1 G2 [2])
13 | CC(CN1C[C@@H](COc2ccc(S(C)(=O)=O)cc2)[C@H](C)C1)c1cc(Cl)cc(C#N)c1 (single isomer, unassigned) [Compound 147, 3-chloro-5-[(2R or 2S)-1-[(3S, 4S)-3-[(4-meth-anesulfonylphen-oxy)methyl]-4-methylpyrroli-din-1-yl]propan-2-yl]benzonitrile] | 1110 nM | 618 nM
